According to patent US20250122182A1 (Isosterix, Inc., priority 2023, published 2025):

Target: Recombinant KAT6A/MOZ (488-778) protein (Homo sapiens (Human), UniProt Q92794)
Test: KAT6A AlphaLISA Inhibition Screening Assay
Type: biochemical
Conditions: for Average Kat6A % inhibition @ 1 μM / inhibition at 1 µM: 1 μM test compound; for Average Kat6A % inhibition @ 10 μM / inhibition at 10 µM: 10 μM test compound; for inhibition at 1 µM: read-out: Average Kat6A % inhibition @ 1 μM; for inhibition at 10 µM: read-out: Average Kat6A % inhibition @ 10 μM
Protocol: The Kat6a inhibitory activity of test compounds was determined using an Alpha Screen-based detection method. The assay reactions were conducted in a volume of 10 μL in Alpha Plate, White 384 well plate (cat #6008280, Perkin Elmer). The enzymatic reactions were performed in assay buffer pH 8.0 (50 mM Tris-HCl, 0.1 mM EDTA, 0.01% Tween-20, 1 mM Dithiothreitol, 0.1% BSA (fatty acid free) and 330 nM TSA (Trichostatin A)). 10 μL reaction volume consisting of 25 nM of Recombinant KAT6A/MOZ (488-778) protein (Active motif, Catalog #81223), 400 nM Acetyl coenzyme A (Catalog #A2056, Sigma), 200 nM of Histone H3 peptide [(amino acids 1-21), biotin-labeled (BPS Biosciences, Catalog #52011)]. Test compounds were screened at different doses starting with 10 μM, 3 fold dilution and 10 point Dose response curve. Enzyme and compounds solution were pre-incubated in assay plate for 60 or 10 min at room temperature then substrate and Acetyl coenzyme A solution were added to the plate. After addition, the plate was sealed with adhesive seals and incubated for 120 minutes at room temperature.
After 120 minutes of incubation, […] of AlphaLISA anti-acetyl-Lysine acceptor beads (Perkin Elmer, Catalog #AL143C) were added to the plate and it was incubated for 60 minutes at room temperature. Then […] of Alpha Streptavidin donor beads (Perkin Elmer, Catalog #6760002S) were added to the plate which was further incubated for 60 minutes at room temperature. After incubation, the alpha signal was recorded by using Perkin Elmer Envision multi-mode reader. Percent inhibition of enzyme activity by test compounds were determined relative to vehicle control.

Chain of Recombinant KAT6A/MOZ (488-778) protein (Q92794 488-778): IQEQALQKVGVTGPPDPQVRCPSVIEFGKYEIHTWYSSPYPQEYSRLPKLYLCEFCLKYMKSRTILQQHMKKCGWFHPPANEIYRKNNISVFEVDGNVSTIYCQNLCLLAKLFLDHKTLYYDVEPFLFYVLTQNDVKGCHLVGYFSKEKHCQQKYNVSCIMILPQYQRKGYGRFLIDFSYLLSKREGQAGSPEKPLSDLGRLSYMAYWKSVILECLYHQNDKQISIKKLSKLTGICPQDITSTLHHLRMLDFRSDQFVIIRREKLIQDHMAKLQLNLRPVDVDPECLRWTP

Row | Average Kat6A % inhibition @ 1 μM [%] | Average Kat6A % inhibition @ 10 μM [%] | inhibition at 1 µM [%] | inhibition at 10 µM [%] | Compound
1 |  |  | 100 | 100 | C=C(Cl)C(=O)NCc1cnn(Cc2cc(OC)c3c(NS(=O)(=O)c4cc(CC)ccc4OC)noc3c2)c1 [Syn. Ex. 35, 2-chloro-N-((1-((3-((5-ethyl-2-methoxyphenyl)sulfonamido)-4-methoxybenzo[d]isoxazol-6-yl)methyl)-1H-pyrazol-4-yl)methyl)acrylamide]
2 |  |  | 99 | 99 | C=C(F)C(=O)NCc1cnn(Cc2cc(OC)c3c(NS(=O)(=O)c4ccccc4OC)noc3c2)c1 [Syn. Ex. 40, 2-fluoro-N-((1-((4-methoxy-3-((2-methoxyphenyl)sulfonamido)benzo[d]isoxazol-6-yl)methyl)-1H-pyrazol-4-yl)methyl)acrylamide]
3 |  |  | 87 | 100 | C=C(F)C(=O)NCc1cnn(Cc2cc(OC)c3c(NS(=O)(=O)c4cc(OC)ccc4OC)noc3c2)c1 [Syn. Ex. 41, N-((1-((3-((2,5-dimethoxyphenyl)sulfonamido)-4-methoxybenzo[d]isoxazol-6-yl)methyl)-1H-pyrazol-4-yl)methyl)-2-fluoroacrylamide]
4 |  |  | 96 | 98 | C=C(F)C(=O)NCc1cnn(Cc2cc(OC)c3c(NS(=O)(=O)c4cc(CC)ccc4OCC#N)noc3c2)c1 [Syn. Ex. 43, N-((1-((3-((2-(cyanomethoxy)-5-ethylphenyl)sulfonamido)-4-methoxybenzo[d]isoxazol-6-yl)methyl)-1H-pyrazol-4-yl)methyl)-2-fluoroacrylamide]
5 |  |  | 85 | 99 | C=C(F)C(=O)NCc1cnn(Cc2cc(OC)c3c(NS(=O)(=O)c4cc(CC)ccc4OCC(N)=O)noc3c2)c1 [Syn. Ex. 45, N-((1-((3-((2-(2-amino-2-oxoethoxy)-5-ethylphenyl)sulfonamido)-4-methoxybenzo[d]isoxazol-6-yl)methyl)-1H-pyrazol-4-yl)methyl)-2-fluoroacrylamide]
6 |  |  | 91 | 97 | CC#CC(=O)NCc1cnn(Cc2cc(OC)c3c(NS(=O)(=O)c4cc(OC)ccc4OC)noc3c2)c1 [Syn. Ex. 58, N-((1-((3-((2,5-dimethoxyphenyl)sulfonamido)-4-methoxybenzo[d]isoxazol-6-yl)methyl)-1H-pyrazol-4-yl)methyl)but-2-ynamide]
7 |  |  | 100 | 100 | C=C(F)C(=O)NCc1cnn(Cc2cc(OC)c3c(NS(=O)(=O)c4cc(C(C)C)ccc4OC)noc3c2)c1 [Syn. Ex. 59, 2-fluoro-N-((1-((3-((5-isopropyl-2-methoxyphenyl)sulfonamido)-4-methoxybenzo[d]isoxazol-6-yl)methyl)-1H-pyrazol-4-yl)methyl)acrylamide]
8 |  |  | 93 | 100 | C=C(F)C(=O)NCc1cnn(Cc2cc(OC)c3c(NS(=O)(=O)c4ccc(OC)cc4OC)noc3c2)c1 [Syn. Ex. 60, N-((1-((3-((2,4-dimethoxyphenyl)sulfonamido)-4-methoxybenzo[d]isoxazol-6-yl)methyl)-1H-pyrazol-4-yl)methyl)-2-fluoroacrylamide]

Continued, molecule first:

Row | Compound | Average Kat6A % inhibition @ 1 μM [%] | Average Kat6A % inhibition @ 10 μM [%] | inhibition at 1 µM [%] | inhibition at 10 µM [%]
9 | CC#CC(=O)NCc1cnn(Cc2cc(OC)c3c(NS(=O)(=O)c4cc5c(cc4OC)CCC5)noc3c2)c1 [Syn. Ex. 29, N-((1-((4-methoxy-3-((6-methoxy-2,3-dihydro-1H-indene)-5-sulfonamido)benzo[d]isoxazol-6-yl)methyl)-1H-pyrazol-4-yl)methyl) but-2-ynamide] | 100 | 100 |  | 
10 | C=C(F)C(=O)NCc1cnn(Cc2cc(OC)c3c(NS(=O)(=O)c4cc5c(cc4OC)CCC5)noc3c2)c1 [Syn. Ex. 30, 2-fluoro-N-((1-((4-methoxy-3-((6-methoxy-2,3-dihydro-1H-indene)-5-sulfonamido)benzo[d]isoxazol-6-yl)methyl)-1H-pyrazol-4-yl)methyl)acrylamide] | 100 | 100 |  | 
11 | CCc1ccc(OC)c(S(=O)(=O)Nc2noc3cc(Cn4cc(CNC(=O)OCCNC(=O)OC(C)(C)C)cn4)cc(OC)c23)c1 [Syn. Ex. 31, 2-((tert-butoxycarbonyl)amino)ethyl ((1-((3-((5-ethyl-2-methoxyphenyl)sulfonamido)-4-methoxybenzo[d]isoxazol-6-yl)methyl)-1H-pyrazol-4-yl)methyl)carbamate] |  |  | 86 | 99
12 | CCc1ccc(OC)c(S(=O)(=O)Nc2noc3cc(Cn4cc(CNC(=O)OCCN)cn4)cc(OC)c23)c1 [Syn. Ex. 32, 2-aminoethyl ((1-((3-((5-ethyl-2-methoxyphenyl)sulfonamido)-4-methoxybenzo[d]isoxazol-6-yl)methyl)-1H-pyrazol-4-yl)methyl) carbamate] | 75 | 97 |  | 
13 | COc1ccc(C(C)(C)C)cc1S(=O)(=O)Nc1noc2cc(Cn3cc(CNS(C)(=O)=O)cn3)cc(OC)c12 [Syn. Ex. 33, 5-(tert-butyl)-2-methoxy-N-(4-methoxy-6-((4-(methylsulfonamidomethyl)-1H-pyrazol-1-yl)methyl)benzo[d]isoxazol-3-yl)benzenesulfonamide] |  |  | 96 | 100
14 | CCc1ccc(OC)c(S(=O)(=O)Nc2noc3cc(Cn4cc(CNC(=O)OCCO)cn4)cc(OC)c23)c1 [Syn. Ex. 34, 2-hydroxyethyl ((1-((3-((5-ethyl-2-methoxyphenyl)sulfonamido)-4-methoxybenzo[d]isoxazol-6-yl)methyl)-1H-pyrazol-4-yl)methyl)carbamate] |  |  | 86 | 100
15 | C=C(F)C(=O)NCc1cnn(Cc2cc(OC)c3c(NS(=O)(=O)c4ccccc4OCc4ccccc4)noc3c2)c1 [Syn. Ex. 36, N-((1-((3-((2-(benzyloxy)phenyl)sulfonamido)-4-methoxybenzo[d]isoxazol-6-yl)methyl)-1H-pyrazol-4-yl)methyl)-2-fluoroacrylamide] |  |  | 93 | 97
16 | COc1cc(Cn2cc(CNS(C)(=O)=O)cn2)cc2onc(NS(=O)(=O)c3ccccc3OCc3ccccc3)c12 [Syn. Ex. 37, 2-(benzyloxy)-N-(4-methoxy-6-((4-(methylsulfonamidomethyl)-1H-pyrazol-1-yl)methyl)benzo[d]isoxazol-3-yl)benzenesulfonamide] |  |  | 100 | 100
17 | COc1ccc(C(C)C)cc1S(=O)(=O)Nc1noc2cc(Cn3cc(CNS(C)(=O)=O)cn3)cc(OC)c12 [Syn. Ex. 38, 5-isopropyl-2-methoxy-N-(4-methoxy-6-((4-(methylsulfonamidomethyl)-1H-pyrazol-1-yl)methyl)benzo[d]isoxazol-3-yl)benzenesulfonamide] |  |  | 100 | 99
18 | C=C(F)C(=O)N(C)Cc1cnn(Cc2cc(OC)c3c(NS(=O)(=O)c4cc(CC)ccc4OC)noc3c2)c1 [Syn. Ex. 39, N-((1-((3-((5-ethyl-2-methoxyphenyl)sulfonamido)-4-methoxybenzo[d]isoxazol-6-yl)methyl)-1H-pyrazol-4-yl)methyl)-2-fluoro-N-methylacrylamide] |  |  | 92 | 100
19 | C=CC(=O)NCc1cnn(Cc2cc(OC)c3c(NS(=O)(=O)c4cc(CC)ccc4OC)noc3c2)c1 [Syn. Ex. 42, N-((1-((3-((5-ethyl-2-methoxyphenyl)sulfonamido)-4-methoxybenzo[d]isoxazol-6-yl)methyl)-1H-pyrazol-4-yl)methyl) acrylamide] |  |  | 93 | 100
20 | CCc1ccc(OCC#N)c(S(=O)(=O)Nc2noc3cc(Cn4cc(CNC(=O)OC)cn4)cc(OC)c23)c1 [Syn. Ex. 44, methyl ((1-((3-((2-(cyanomethoxy)-5-ethylphenyl)sulfonamido)-4-methoxybenzo[d]isoxazol-6-yl)methyl)-1H-pyrazol-4-yl)methyl)carbamate] |  |  | 97 | 100
21 | CCc1ccc(OC)c(S(=O)(=O)Nc2noc3cc(Cn4cc(CNC(=O)OCCNC(C)=O)cn4)cc(OC)c23)c1 [Syn. Ex. 48, 2-acetamidoethyl ((1-((3-((5-ethyl-2-methoxyphenyl)sulfonamido)-4-methoxybenzo[d]isoxazol-6-yl)methyl)-1H-pyrazol-4-yl)methyl)carbamate] |  |  | 96 | 100
22 | CCc1ccc(OC)c(S(=O)(=O)Nc2noc3cc(Cn4cc(CNC(=O)C#CCO)cn4)cc(OC)c23)c1 [Syn. Ex. 49, N-((1-((3-((5-ethyl-2-methoxyphenyl)sulfonamido)-4-methoxybenzo[d]isoxazol-6-yl)methyl)-1H-pyrazol-4-yl)methyl)-4-hydroxybut-2-ynamide] |  |  | 94 | 100
23 | CC#CC(=O)NCc1ccc(Oc2cc(OC)c3c(NS(=O)(=O)c4cc(CC)ccc4OC)noc3c2)nc1 [Syn. Ex. 57, N-((6-((3-((5-ethyl-2-methoxyphenyl)sulfonamido)-4-methoxybenzo[d]isoxazol-6-yl)oxy)pyridin-3-yl)methyl)but-2-ynamide] |  |  | 70 | 100
